Patent US20130209386A1, “NEW USES” (EVOCUTIS PLC, priority 2010, published 2013)
Converted amounts (≈) assume the structure as drawn. “And” between values parts separate entries of the source, which are not always exact repeats. Equal entries are not always repeated. Where two headings read alike, the source gives them in different places. Marks after values point to notes of the source that are not given here.

Columns and labels:
[1] = test system: Propionibacterium acnes NCTC 737; assay: Minimum inhibitory concentration (MIC) assay; format: cell-based
Experimental: (§1) The first test organism used was Propionibacterium acnes NCTC 737. This is a propionibacterial strain and is the type strain of the genus; it is fully susceptible to antibiotics. The propionibacteria are clinically significant due to their involvement in acne. They are also opportunistic pathogens in compromised hosts. Activity observed against these micro-organisms is expected to be a good predictor of activity against acne.
(§2) The propionibacteria were cultured and maintained on Wilkins-Chalgren Anaerobe Medium (agar and broth) at pH 6.0; all cultures were incubated anaerobically at 37° C. for 72 hours.
(a) Minimum Inhibitory Concentration (MIC) Assay
This is a standard international method for quantitatively assessing the antimicrobial activity of a compound in a liquid medium. The method used a sterile 96-well microtitre plate, capable of holding about 200 μl of liquid per well. The wells contained liquid culture medium and ranges of decreasing concentrations of the relevant test compound in doubling dilutions (eg 1000, 500, 250, 125 . . . μg/ml, etc, down to 0.49 μg/ml). The culture media were as described above.
(§3) The wells were inoculated with a liquid suspension of freshly grown micro-organism and incubated under the conditions described above. After incubation, the microtitre plate was examined visually (with the aid of a light box) for cloudiness in each well, which would indicate microbial growth. The MIC value was recorded as the lowest concentration of test compound required to inhibit microbial growth, ie the lowest concentration for which the liquid in the well remained clear.
The assays included both negative (culture medium with no micro-organisms) and positive (culture medium plus diluting solvent plus micro-organism) controls.

[2] = test system: Propionibacterium acnes NCTC 737; assay: Minimum biocidal concentration (MBC) assay; format: cell-based
Experimental: as §1, §2
(b) Minimum Biocidal Concentration (MBC) Assay
This assay, normally carried out after an MIC assay, determines the minimum concentration of a compound that is lethal to the micro-organism being tested.
(§4) These samples were then individually sub-cultured on antibiotic-free agar medium, under the incubation conditions described above. Following incubation they were examined visually for microbial growth.

P. acnes NCTC 737 [3] = assay: Fixed ratio combination MIC/MBC assays; format: cell-based, Propionibacterium acnes
Experimental: (§5) (g) Fixed Ratio Combination MIC/MBC Assays
(§6) This method used a sterile 96-well microtitre plate, capable of holding about 200 μl of liquid per well. The wells contained liquid culture medium and ranges of decreasing concentrations of the relevant test compounds alone in doubling dilutions (eg 1000, 500, 250, 125 . . . μg/ml, etc. down to 0.49 μg/ml) or doubling dilutions of a combination of two compounds mixed initially at a fixed concentration ratio (based on molarity in this instance). The culture medium was as described above.
as §3, with “compounds alone or concentrations of the mixture of the two test compounds” for “compound”, “the” for “the lowest concentration for which the”
(§7) The assays were conducted in triplicate and included both negative (culture medium with no micro-organisms) and positive (culture medium plus diluting solvent(s) plus micro-organism) controls.
as §4
(§8) Thus for each mixture tested, the FIC for compound A (FICA)=MIC for (A+B)/MIC for A alone. Similarly the FIC for compound B (FICB)=MIC for (A+B)/MIC for B alone. The overall FICI=FICA+FICB.
(§9) FBC & FBCI were calculated in the same manner using recorded MBC values.

[4] = test system: Propionibacterium acnes NCTC 737; assay: Disc diffusion assay (DDA) and synergy disc diffusion assay (SDDA); format: cell-based
Experimental: (c) Disc Diffusion Assay (DDA)
This is an internationally recognised standard method for qualitatively assessing the antimicrobial activity of a compound or combination of compounds.
A sterile paper disc was impregnated with a sample of the test compound(s) in a suitable solvent (or applied neat) and 30 minutes allowed for any of the solvents to evaporate (where possible). The disc was then placed on an agar plate onto which the test micro-organism had been inoculated. The plate was then incubated under the conditions described above, following which it was examined visually for signs of microbial growth. […] The diameter of this zone of “inhibition” was measured using a ProtoCOL™ automated zone sizer (Synbiosis, Cambridge, UK).
(d) Synergy Disc Diffusion Assay (SDDA)
This is a variation on the DDA method, in which two compounds are tested together for their combined antimicrobial activity.
Two test compounds A and B were placed on a single paper disc and the above described DDA procedure repeated.
The two compounds were then subjected in combination to the SDDA assay described above.
MIC/MBC experiments were performed in duplicate and (S)DDA experiments in triplicate.
The tropolone was dissolved in ethanol.

C. striatum NCTC 764 = assay: Fixed ratio combination MIC/MBC assays; format: cell-based, Corynebacterium striatum
Experimental: The second test organism used was Corynebacterium striatum NCTC 764. This is a Gram-positive bacterium which is closely related to organisms (aerobic diphtheroids of the genus Corynebacterium) that cause body odour (Guillet et al, Eur J Dermatol, 2000 Jan-Feb, 10(1): 41-2). The C. striatum was cultured and maintained on Mueller-Hinton Medium (agar and broth) at pH 7.3 (±0.1); cultures were incubated aerobically at 37° C. for 18-24 hours.
as §5, §6
as §3, with “compounds alone or concentrations of the mixture of the two test compounds” for “compound”, “the” for “the lowest concentration for which the”
as §7, §4, §8, §9

P. acnes NCTC 737 [5] = assay: Synthetic sebum time-to-kill assay; format: cell-based, Propionibacterium acnes; details: copper sulphate 97.5 mg/L, tropolone 195 mg/L; for Log10 change: T0 to T4 hours; for Log10 cfu/ml (T4 hours): after 4 hours, lowest detectable level 3.0; for Log10 cfu/ml (T0 hours): start count
Experimental: (f) Synthetic Sebum Time-to-Kill Assay This quantitative assay was designed to assess the level of kill of a P. acnes culture in a synthetic sebum (non-aqueous environment) over a defined time period (in this case 4 hours). A culture of P. acnes NCTC 737 was inoculated into a synthetic sebum (a liquid mixture of lipid components designed to simulate human sebum) containing the relevant test compound dissolved in 1-octanol. […] The plates were then incubated as described above and subsequently examined visually for growth. The numbers of viable microbial colonies on the plates were counted with the aid of a colony counter and converted to colony-forming units per ml (cfu/ml) using the appropriate dilution factor. Cell counts conducted in the absence of test compound acted as positive controls. Mixtures of tropolone and copper (II) sulphate, containing various relative proportions of the two actives, were subjected to synthetic sebum time-to-kill assays against P. acnes NCTC 737, as described above. All assays were conducted in triplicate.

Row | Structure (SMILES) | MIC [1] [µg/mL] | MBC [2] [µg/mL] | MIC/MBC ratio [2] | MBC (P. acnes NCTC 737 [3]; compound alone) | MIC (P. acnes NCTC 737 [3]; compound alone) | (S)DDA with tropolone [4] [mm] | DDA zone of inhibition diameter [4] [mm] | SDDA area increase [4] [%] | SDDA increase [4] [mm] | MBC (C. striatum NCTC 764) | MIC (C. striatum NCTC 764) | Log10 change (P. acnes NCTC 737 [5]) [Log10] | Log10 cfu/ml (T4 hours) (P. acnes NCTC 737 [5]) [Log10 cfu/ml] | Log10 cfu/ml (T0 hours) (P. acnes NCTC 737 [5]) [Log10 cfu/ml] | also measured
1 | CC(=O)[O-].[Cu+] [Copper (I) acetate] | 7.8 | 31.25 | 0.25 | 23.3 µg/mL | 23.3 µg/mL | 32.35 | 32.14 | 1.29 | 0.21 | >62.8** μg/ml | >62.8** μg/ml | – | – | – | –
2 | CC(=O)[O-].CC(=O)[O-].[Cu+2] [Copper (II) acetate] | 3.9 | 125 | 0.03 | 46 µg/mL and 34.6 µg/mL | – | 30.80 | 25.63 | 44.39 | 5.17 | >46.5** μg/ml | >46.5** μg/ml | – | – | – | –
3 | O.O.O.O.O.O=S(=O)([O-])[O-].[Cu+2] [Copper sulphate, copper (II) sulphate pentahydrate] | 15.6 | 125 | 0.125 | >40.9** μg/ml and 60.8 μg/ml | 20.4 µg/mL and 30.4 µg/mL | – | – | – | – | >40.9** μg/ml | >40.9** μg/ml | −1.53 | 6.58 | 8.11 | (S)DDA zone of inhibition diameter [4]: 17.3 (±2.59) mm
4 | O=c1cccccc1O [Tropolone, 2-hydroxy-2,4,6-cycloheptatrien-1-one] | – | – | – | – | 62.5 µg/mL | – | – | – | – | – | – | −0.31 | 7.8 | 8.11 | MIC ([1]; Cutibacterium acnes, NCTC737, P. acnes NCTC 737, compound alone, read-out: MIC): 15.6 µg/mL (≈ 128 µM); MBC ([2]; Cutibacterium acnes, NCTC737, P. acnes NCTC 737, compound alone, read-out: MBC): 250 µg/mL (≈ 2050 µM); MIC/MBC ratio ([2]; P. acnes NCTC 737, compound alone): 0.06; MBC (P. acnes NCTC 737 [3]; Cutibacterium acnes, NCTC737, compound alone, read-out: MBC): > 62.5 µg/mL; MIC (P. acnes NCTC 737 [3]; Cutibacterium acnes, NCTC737, compound alone, read-out: MIC): 31.2 µg/mL; zone of inhibition at 200 µg/disc ([4]; Cutibacterium acnes, NCTC737, 200 μg tropolone and/or 12.5 μg copper sulphate per disc, read-out: (S)DDA zone of inhibition diameter): 19.1 mm; zone of inhibition at 12.5 µg/disc ([4]; Cutibacterium acnes, NCTC737, compound alone, 12.5 μg per disc (gluconate, picolinate 25 μg; silicate 12.4 μg; chlorophyllin 200 μg), read-out: DDA zone of inhibition diameter): 13.2 mm; MBC (C. striatum NCTC 764; C. striatum NCTC 764, compound alone): 62.5 µg/mL; MBC (C. striatum NCTC 764; Corynebacterium striatum, NCTC764, C. striatum NCTC 764, compound alone, read-out: MBC): > 62.5 µg/mL
